Measured values as given in patent publication US6455540B1, “Methods of use of quinolone compounds against anaerobic pathogenic bacteria” (priority 1999, dated 2002).

Legend:
Experiment in all cases: Agar dilution MIC
[1] = system: Clostridium dfficile; type: cell-based, Clostridium difficile; details: 14 isolates
[2] = system: Prevotella buccae-oris group; type: cell-based; details: 22 isolates
[3] = system: Peptostreptococcus micros; type: cell-based; details: 12 isolates
[4] = system: Peptostreptococcus asaccharolyticus; type: cell-based; details: 11 isolates
[5] = system: Bacteroides tectum; type: cell-based; details: 22 isolates
[6] = system: Prevotella bivia; type: cell-based; details: 21 isolates
[7] = system: Fusobacterium spp. group 2; type: cell-based, Fusobacterium mortiferum, necrogenes, ulcerans; details: 12 isolates
[8] = system: Porphyromonas gingivalis; type: cell-based; details: 13 isolates
[9] = system: Fusobacterium varium; type: cell-based; details: 17 isolates
[10] = system: Porphyromonas macaccae; type: cell-based; details: 13 isolates
[11] = system: Prevotella intermedia; type: cell-based; details: 11 isolates
[12] = system: Actinomyces israelii; type: cell-based; details: 6 isolates
[13] = system: Clostridium clostridioforme; type: cell-based; details: 11 isolates
[14] = system: Veillonella spp.; type: cell-based; details: 24 isolates
[15] = system: Bilophila wadsworthia; type: cell-based; details: 16 isolates; agar supplemented with pyruvate
[16] = system: Fusobacterium spp group 1; type: cell-based; details: 19 isolates
[17] = system: Fusobacterium russii; type: cell-based
[18] = system: Anaerobiospirillum succiniciproducens; type: cell-based; details: 3 isolates
[19] = system: Prevotella melaninogenica; type: cell-based; details: 12 isolates
[20] = system: Peptostreptococcus prevotii; type: cell-based; details: 9 isolates
[21] = system: Anaerobiospirillum thomasii; type: cell-based; details: 13 isolates
[22] = system: Clostridium inocuum; type: cell-based, Clostridium innocuum; details: 11 isolates
[23] = system: Actinomyces odontolyticus; type: cell-based; details: 10 isolates
[24] = system: Peptostreptococcus magnus; type: cell-based; details: 13 isolates
[25] = system: Bacteroides gracilis; type: cell-based, Bacteroides gracilis (Campylobacter gracilis); details: 11 isolates
[26] = system: Prevotella heparinolytica; type: cell-based; details: 16 isolates
[27] = system: Prevotella denticola/loeschii group; type: cell-based; details: 6 isolates
[28] = system: Clostridium ramosum; type: cell-based; details: 10 isolates
[29] = system: Bacteroides ureolyticus; type: cell-based; details: 17 isolates
[30] = system: Porphyromonas canoris; type: cell-based; details: 10 isolates
[31] = system: Porphyromonas asaccharolyticus; type: cell-based, Porphyromonas asaccharolytica; details: 11 isolates

Compound: CC1(C)S[C@@H]2[C@H](NC(=O)Cc3ccccc3)C(=O)N2[C@H]1C(=O)O [Penicillin G]
- Minimal Inhibitory Concentration 50% (MIC50) [1]: 2 µg/mL
- Minimal Inhibitory Concentration 90% (MIC90) [1]: 4 µg/mL
- Minimal Inhibitory Concentration Range [1]: 1 to 4 µg/mL
- Minimal Inhibitory Concentration 50% (MIC50) [2]: 8 µg/mL
- Minimal Inhibitory Concentration 90% (MIC90) [2]: >32 µg/mL
- Minimal Inhibitory Concentration 90% (MIC90) [3]: 0.03 µg/mL
- Minimal Inhibitory Concentration 50% (MIC50) [4]: 0.03 µg/mL
- Minimal Inhibitory Concentration 90% (MIC90) [4]: 0.25 µg/mL
- Minimal Inhibitory Concentration 50% (MIC50) [5]: 0.03 µg/mL
- Minimal Inhibitory Concentration 90% (MIC90) [5]: 16 µg/mL
- Minimal Inhibitory Concentration 50% (MIC50) [6]: 16 µg/mL
- Minimal Inhibitory Concentration 90% (MIC90) [6]: 32 µg/mL
- Minimal Inhibitory Concentration Range [6]: 0.25 to 32 µg/mL
- Minimal Inhibitory Concentration 50% (MIC50) [7]: 0.25 µg/mL
- Minimal Inhibitory Concentration 90% (MIC90) [7]: 0.5 µg/mL
- Minimal Inhibitory Concentration 90% (MIC90) [8]: 0.03 µg/mL
- Minimal Inhibitory Concentration 50% (MIC50) [9]: 0.5 µg/mL
- Minimal Inhibitory Concentration 90% (MIC90) [9]: 8 µg/mL
- Minimal Inhibitory Concentration 50% (MIC50) [10]: 0.5 µg/mL
- Minimal Inhibitory Concentration 90% (MIC90) [10]: 0.5 µg/mL
- Minimal Inhibitory Concentration 50% (MIC50) [11]: 0.03 µg/mL
- Minimal Inhibitory Concentration 90% (MIC90) [11]: 4 µg/mL
- Minimal Inhibitory Concentration 50% (MIC50) [12]: 0.03 µg/mL
- Minimal Inhibitory Concentration 50% (MIC50) [13]: 1 µg/mL
- Minimal Inhibitory Concentration 90% (MIC90) [13]: 16 µg/mL
- Minimal Inhibitory Concentration 50% (MIC50) [14]: 1 µg/mL
- Minimal Inhibitory Concentration 90% (MIC90) [14]: 4 µg/mL
- Minimal Inhibitory Concentration 50% (MIC50) [15]: 4 µg/mL
- Minimal Inhibitory Concentration 90% (MIC90) [15]: 8 µg/mL
- Minimal Inhibitory Concentration Range [15]: 2 to 16 µg/mL
- Minimal Inhibitory Concentration 90% (MIC90) [16]: 2 µg/mL
- Minimal Inhibitory Concentration 50% (MIC50) [17]: 0.03 µg/mL
- Minimal Inhibitory Concentration 90% (MIC90) [17]: 0.06 µg/mL
- Minimal Inhibitory Concentration 50% (MIC50) [18]: 0.5 µg/mL
- Minimal Inhibitory Concentration Range [18]: 0.5 to 1 µg/mL
- Minimal Inhibitory Concentration 50% (MIC50) [19]: 0.25 µg/mL
- Minimal Inhibitory Concentration 90% (MIC90) [19]: 2 µg/mL
- Minimal Inhibitory Concentration 50% (MIC50) [20]: 0.03 µg/mL
- Minimal Inhibitory Concentration Range [20]: 0.03 to 0.06 µg/mL
- Minimal Inhibitory Concentration 50% (MIC50) [21]: 0.06 µg/mL
- Minimal Inhibitory Concentration 90% (MIC90) [21]: 0.125 µg/mL
- Minimal Inhibitory Concentration Range [21]: 0.06 to 0.125 µg/mL
- Minimal Inhibitory Concentration 50% (MIC50) [22]: 0.5 µg/mL
- Minimal Inhibitory Concentration 90% (MIC90) [22]: 0.5 µg/mL
- Minimal Inhibitory Concentration 50% (MIC50) [23]: 0.125 µg/mL
- Minimal Inhibitory Concentration 90% (MIC90) [23]: .0125 µg/mL
- Minimal Inhibitory Concentration Range [23]: 0.125 to 0.25 µg/mL
- Minimal Inhibitory Concentration 50% (MIC50) [24]: 0.03 µg/mL
- Minimal Inhibitory Concentration 90% (MIC90) [24]: 0.25 µg/mL
- Minimal Inhibitory Concentration 50% (MIC50) [25]: 0.125 µg/mL
- Minimal Inhibitory Concentration 90% (MIC90) [25]: 4 µg/mL
- Minimal Inhibitory Concentration 50% (MIC50) [26]: 0.06 µg/mL
- Minimal Inhibitory Concentration 90% (MIC90) [26]: 0.125 µg/mL
- Minimal Inhibitory Concentration Range [26]: 0.06 to 0.25 µg/mL
- Minimal Inhibitory Concentration 50% (MIC50) [27]: 4 µg/mL
- Minimal Inhibitory Concentration 50% (MIC50) [28]: 0.06 µg/mL
- Minimal Inhibitory Concentration 90% (MIC90) [28]: 1 µg/mL
- Minimal Inhibitory Concentration Range [28]: 0.06 to 1 µg/mL
- Minimal Inhibitory Concentration 90% (MIC90) [29]: 0.25 µg/mL

Compound: Amoxicillin clavulanate
- Minimal Inhibitory Concentration 50% (MIC50) [1]: 1 µg/mL
- Minimal Inhibitory Concentration 90% (MIC90) [1]: 1 µg/mL
- Minimal Inhibitory Concentration Range [1]: 0.5 to 1 µg/mL
- Minimal Inhibitory Concentration 50% (MIC50) [2]: 0.25 µg/mL
- Minimal Inhibitory Concentration 90% (MIC90) [2]: 1 µg/mL
- Minimal Inhibitory Concentration Range [2]: 0.125 to 2 µg/mL
- Minimal Inhibitory Concentration 50% (MIC50) [3]: 0.03 µg/mL
- Minimal Inhibitory Concentration Range [3]: 0.03 to 0.125 µg/mL
- Minimal Inhibitory Concentration 50% (MIC50) [4]: 0.03 µg/mL
- Minimal Inhibitory Concentration Range [4]: 0.03 to 1 µg/mL
- Minimal Inhibitory Concentration 50% (MIC50) [5]: 0.06 µg/mL
- Minimal Inhibitory Concentration 90% (MIC90) [5]: 0.5 µg/mL
- Minimal Inhibitory Concentration Range [5]: 0.03 to 0.5 µg/mL
- Minimal Inhibitory Concentration 50% (MIC50) [6]: 0.5 µg/mL
- Minimal Inhibitory Concentration 90% (MIC90) [6]: 4 µg/mL
- Minimal Inhibitory Concentration Range [6]: 0.06 to 4 µg/mL
- Minimal Inhibitory Concentration 50% (MIC50) [7]: 1 µg/mL
- Minimal Inhibitory Concentration 90% (MIC90) [7]: 2 µg/mL
- Minimal Inhibitory Concentration 90% (MIC90) [8]: 0.06 µg/mL
- Minimal Inhibitory Concentration 50% (MIC50) [9]: 2 µg/mL
- Minimal Inhibitory Concentration 90% (MIC90) [9]: 4 µg/mL
- Minimal Inhibitory Concentration Range [9]: 0.125 to 4 µg/mL
- Minimal Inhibitory Concentration 50% (MIC50) [11]: 0.03 µg/mL
- Minimal Inhibitory Concentration Range [11]: 0.03 to 0.5 µg/mL
- Minimal Inhibitory Concentration 50% (MIC50) [12]: 0.03 µg/mL
- Minimal Inhibitory Concentration Range [12]: 0.03 to 1 µg/mL
- Minimal Inhibitory Concentration 50% (MIC50) [13]: 0.5 µg/mL
- Minimal Inhibitory Concentration 90% (MIC90) [13]: 1 µg/mL
- Minimal Inhibitory Concentration Range [13]: 0.5 to 8 µg/mL
- Minimal Inhibitory Concentration 50% (MIC50) [14]: 0.5 µg/mL
- Minimal Inhibitory Concentration 90% (MIC90) [14]: 2 µg/mL
- Minimal Inhibitory Concentration 50% (MIC50) [15]: 2 µg/mL
- Minimal Inhibitory Concentration 90% (MIC90) [15]: 4 µg/mL
- Minimal Inhibitory Concentration Range [15]: 1 to 4 µg/mL
- Minimal Inhibitory Concentration 50% (MIC50) [16]: 0.06 µg/mL
- Minimal Inhibitory Concentration 50% (MIC50) [17]: 0.06 µg/mL
- Minimal Inhibitory Concentration 50% (MIC50) [18]: 0.25 µg/mL
- Minimal Inhibitory Concentration Range [18]: 0.25 to 0.5 µg/mL
- Minimal Inhibitory Concentration 50% (MIC50) [19]: 2 µg/mL
- Minimal Inhibitory Concentration 90% (MIC90) [19]: 4 µg/mL
- Minimal Inhibitory Concentration Range [19]: 0.03 to 16 µg/mL
- Minimal Inhibitory Concentration 50% (MIC50) [20]: 0.03 µg/mL
- Minimal Inhibitory Concentration 90% (MIC90) [21]: 0.25 µg/mL
- Minimal Inhibitory Concentration Range [21]: 0.125 to 0.25 µg/mL
- Minimal Inhibitory Concentration 90% (MIC90) [30]: 0.03 µg/mL
- Minimal Inhibitory Concentration 50% (MIC50) [22]: 0.5 µg/mL
- Minimal Inhibitory Concentration 90% (MIC90) [22]: 0.5 µg/mL
- Minimal Inhibitory Concentration Range [22]: 0.5 to 2 µg/mL
- Minimal Inhibitory Concentration 90% (MIC90) [31]: 0.03 µg/mL
- Minimal Inhibitory Concentration 90% (MIC90) [23]: 0.25 µg/mL
- Minimal Inhibitory Concentration Range [23]: 0.06 to 0.125 µg/mL
- Minimal Inhibitory Concentration 50% (MIC50) [24]: 0.03 µg/mL
- Minimal Inhibitory Concentration Range [24]: 0.03 to 1 µg/mL
- Minimal Inhibitory Concentration 50% (MIC50) [25]: 0.5 µg/mL
- Minimal Inhibitory Concentration 90% (MIC90) [25]: 2 µg/mL
- Minimal Inhibitory Concentration 90% (MIC90) [26]: 0.25 µg/mL
- Minimal Inhibitory Concentration Range [26]: 0.06 to 0.25 µg/mL
- Minimal Inhibitory Concentration 50% (MIC50) [27]: 0.06 µg/mL
- Minimal Inhibitory Concentration Range [27]: 0.03 to 0.5 µg/mL
- Minimal Inhibitory Concentration 50% (MIC50) [28]: 0.06 µg/mL
- Minimal Inhibitory Concentration 90% (MIC90) [28]: 0.25 µg/mL
- Minimal Inhibitory Concentration Range [28]: 0.06 to 0.25 µg/mL
